± gives the expanded uncertainty stated by the source.
Settings: 101.33 kPa, Liquid; for speed of sound: Pulse-echo method; for mass density: Vibrating tube method

Q: Which speed of sound (293.15 K) does the source give for `CNc1ccccc1` [N-methylaniline] here?
A: The speed of sound was 1582.5 ± 2.1 m/s.

Q: And the mass density (293.15 K)?
A: Its mass density is 986.295 ± 0.82 kg/m3.

Q: What about the speed of sound (298.15 K) of the same compound?
A: Its speed of sound is 1563.9 ± 2.1 m/s.

Q: And the mass density (298.15 K)?
A: Its mass density is 982.278 ± 0.82 kg/m3.

Q: What about the speed of sound (303.15 K) of the same compound?
A: The speed of sound was 1546 ± 2.1 m/s.

Q: And the mass density (303.15 K)?
A: Its mass density is 978.284 ± 0.81 kg/m3.

Q: Which speed of sound (293.15 K) does the source give for `Nc1ccccc1` [aniline] here?
A: Its speed of sound is 1657 ± 0.94 m/s.

Q: And the mass density (293.15 K)?
A: Its mass density is 1021.84 ± 0.092 kg/m3.

Q: What about the speed of sound (298.15 K) of the same compound?
A: Its speed of sound is 1637.8 ± 0.9 m/s.

Q: What about the mass density (298.15 K) of the same compound?
A: Its mass density is 1017.51 ± 0.09 kg/m3.

Q: And the speed of sound (303.15 K)?
A: Its speed of sound is 1619.3 ± 0.9 m/s.

Q: And the mass density (303.15 K)?
A: The mass density was 1013.23 ± 0.088 kg/m3.

Q: For `CCC(C)=O` [butanone], which speed of sound (293.15 K) is on record?
A: The speed of sound was 1212 ± 0.8 m/s.

Q: And the mass density (293.15 K)?
A: Its mass density is 805.08 ± 0.14 kg/m3.

Q: And the speed of sound (298.15 K)?
A: Its speed of sound is 1190.8 ± 0.8 m/s.

Q: And the mass density (298.15 K)?
A: The mass density was 799.861 ± 0.14 kg/m3.

Q: What about the speed of sound (303.15 K) of the same compound?
A: Its speed of sound is 1170.6 ± 0.8 m/s.

Q: And the mass density (303.15 K)?
A: Its mass density is 794.636 ± 0.14 kg/m3.

Q: For `c1ccncc1` [pyridine], which speed of sound (293.15 K) is on record?
A: Its speed of sound is 1436.6 ± 0.9 m/s.

Q: And the mass density (293.15 K)?
A: Its mass density is 983.163 ± 0.087 kg/m3.

Q: What about the speed of sound (298.15 K) of the same compound?
A: The speed of sound was 1416.2 ± 0.9 m/s.

Q: And the mass density (298.15 K)?
A: The mass density was 978.138 ± 0.089 kg/m3.

Q: What about the speed of sound (303.15 K) of the same compound?
A: Its speed of sound is 1396.9 ± 0.9 m/s.

Q: And the mass density (303.15 K)?
A: Its mass density is 973.148 ± 0.09 kg/m3.

Source: the NIST ThermoML archive (doi:10.1021/je100472t)
